Source: patent publication US7576128B2 (priority 2004, dated 2009)
Substitutions are numbered along the chain they refer to. Where two headings read alike, the source gives them in different places.

Experiments:
[1] = molecular target: T1, hAR (human androgen receptor) (Homo sapiens, UniProt P10275); assay: Competitive binding analysis on baculovirus/Sf9 generated hAR extracts with 3H-DHT tracer
T1 construct: made in house; host or cells: baculovirus/Sf9 insect cells
T1 sequence (P10275 1-920): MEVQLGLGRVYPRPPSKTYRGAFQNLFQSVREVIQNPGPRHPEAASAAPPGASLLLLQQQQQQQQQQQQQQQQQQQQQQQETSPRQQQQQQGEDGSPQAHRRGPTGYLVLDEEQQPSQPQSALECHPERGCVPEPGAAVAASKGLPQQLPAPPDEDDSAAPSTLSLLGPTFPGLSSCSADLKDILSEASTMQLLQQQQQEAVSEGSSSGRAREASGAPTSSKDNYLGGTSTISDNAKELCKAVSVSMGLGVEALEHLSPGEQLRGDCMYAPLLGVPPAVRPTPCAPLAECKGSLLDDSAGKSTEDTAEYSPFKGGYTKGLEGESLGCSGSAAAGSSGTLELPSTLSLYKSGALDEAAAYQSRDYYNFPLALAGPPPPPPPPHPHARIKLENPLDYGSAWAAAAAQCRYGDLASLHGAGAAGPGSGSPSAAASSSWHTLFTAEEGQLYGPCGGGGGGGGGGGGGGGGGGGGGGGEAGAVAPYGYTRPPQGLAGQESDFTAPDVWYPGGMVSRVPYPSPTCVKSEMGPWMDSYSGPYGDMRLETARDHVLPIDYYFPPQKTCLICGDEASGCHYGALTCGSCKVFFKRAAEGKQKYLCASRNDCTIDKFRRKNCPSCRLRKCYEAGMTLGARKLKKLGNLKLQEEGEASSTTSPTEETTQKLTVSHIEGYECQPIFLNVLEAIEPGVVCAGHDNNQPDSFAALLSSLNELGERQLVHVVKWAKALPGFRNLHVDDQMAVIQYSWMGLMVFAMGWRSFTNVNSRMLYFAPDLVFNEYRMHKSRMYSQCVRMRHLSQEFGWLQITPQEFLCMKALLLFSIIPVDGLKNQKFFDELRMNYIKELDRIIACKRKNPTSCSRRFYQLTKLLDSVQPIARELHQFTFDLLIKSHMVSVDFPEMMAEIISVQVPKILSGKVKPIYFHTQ
Procedure: The description below describes how the assay was carried out.
Competitive binding analysis was performed on baculovirus/Sf9 generated hAR extracts in the presence or absence of different concentrations of test agent and a fixed concentration of ^3H-dihydrotestosterone (^3H-DHT) as tracer. This binding assay method is a modification of a protocol previously described (Liao S., et. al. J. Steroid Biochem. 20:11-17 1984). Briefly, progressively decreasing concentrations of compounds are incubated in the presence of hAR extract (Chang et al. P.N.A.S. Vol. 89, pp. 5546-5950,1992), hydroxylapatite, and 1 nM ^3 H-DHT for one hour at 4° C. Subsequently, the binding reactions are washed three times to completely remove excess unbound ^3 H-DHT. hAR bound ^3H-DHT levels are determined in the presence of compounds (=i.e competitive binding) and compared to levels bound when no competitor is present (=i.e. maximum binding). Compound binding affinity to the hAR is expressed as the concentration of compound at which one half of the maximum binding is inhibited.

androgen receptor = molecular target: T2, androgen receptor (Homo sapiens, UniProt P10275); assay: AR antagonist cell assay, MDA-MB453-MMTV clone 54-19 luciferase reporter; type: cell-based; settings: MDA-MB453-MMTV clone 54-19, 100 pM DHT, 17 hr; mean of multiple tests; read-out: AR Cell IC50
T2 sequence (P10275 1-920 Q868H): T1 sequence (P10275 1-920) with Q868H
Procedure: The compounds ability to antagonize the effects of androgen on the androgen receptor were determined in a whole cell assay as described immediately below.
This cell line is a stable transfected cell line with MDA-MB453 cell background (a human breast tumor cell line expressing androgen receptor). A MMTV minimal promoter containing ARE was first cloned in front of a firefly luciferase reporter gene. Then the cascade was cloned into transfection vector pUV120puro. Electroporation method was used for transfecting MDA-MB-453 cell. Puromycin resistant stable cell line was selected.
• 1. Cells are maintained in culture medium, splitting cells when they reach 80-90% confluence • 2. To test compounds, 10,000 cells/well are plated to opaque 96 cell culture plate in 100 ul/well plating medium, culture for overnight at 37° C. in cell culture incubator • 3. Carefully remove plating medium, then add 80 ul/well of pre-warmed assay medium, add 10 ul/well testing compound (final concentration at) 1000 nM, 200 nM, 40 nM, 8 nM, 1.6 nM, and 0.32 nM), incubate at 37° C. for 30 minutes • 4. Add 10 ul/well freshly prepared DHT (final concentration at 100 pM) to each well, incubate at 37° C. for 17 hr (overnight) • 5.
The results are reported as the mean of multiple tests as described below (the numbers of tests are indicated in the footnote). N.D. denotes that the compound was not tested.

## CCCCC(COc1ccc(C#N)c(C(F)(F)F)c1)C(C)O (stereo not shown) [Example 15, 4-[2-(1-Hydroxy-ethyl)-hexyloxy]-2-tri-fluoromethyl-benzonitrile]
[1]; hAR extract, 1 nM 3H-DHT, one hour at 4° C., mean of multiple tests, read-out: AR Binding IC50
  IC50: 210 nM
Androgen receptor
  IC50: 124 nM

## C[C@H](O)CC[C@H](C)Oc1ccc(C#N)c(C(F)(F)F)c1 [Example 23, (1S,4S)-4-(4-Hy-droxy-1-methylpentyl-oxy)-2-tri-fluoromethyl-benzonitrile]
[1]
  IC50: 41 nM
Androgen receptor
  IC50: 132 nM
